{"source": "PubChem BioAssay (NCI)", "assay_in_all_cases": "NCI anticancer screen, dose series, 48 h", "key": {"LOX IMVI melanoma": {"tested_on": "LOX IMVI melanoma"}, "MCF7 breast": {"tested_on": "MCF7 breast"}, "OVCAR-3 ovarian": {"tested_on": "OVCAR-3 ovarian"}, "NCI/ADR-RES ovarian": {"tested_on": "NCI/ADR-RES ovarian"}, "TK-10 renal": {"tested_on": "TK-10 renal"}, "HS 578T breast": {"tested_on": "HS 578T breast"}, "PC-3 prostate": {"tested_on": "PC-3 prostate"}, "SF-295 CNS": {"tested_on": "SF-295 CNS"}, "BT-549 breast": {"tested_on": "BT-549 breast"}, "ACHN renal": {"tested_on": "ACHN renal"}, "DU-145 prostate": {"tested_on": "DU-145 prostate"}, "T-47D breast": {"tested_on": "T-47D breast"}, "M14 melanoma": {"tested_on": "M14 melanoma"}, "SR leukemia": {"tested_on": "SR leukemia"}, "M19-MEL melanoma": {"tested_on": "M19-MEL melanoma"}, "DMS 273 small cell lung": {"tested_on": "DMS 273 small cell lung"}, "KM20L2 colon": {"tested_on": "KM20L2 colon"}, "LXFL 529 NSCLC": {"tested_on": "LXFL 529 NSCLC"}, "SNB-78 CNS": {"tested_on": "SNB-78 CNS"}, "DMS 114 small cell lung": {"tested_on": "DMS 114 small cell lung"}}, "note": "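A five-concentration, 48-hour dose response in 96-well plates underlies each endpoint, interpolated linearly between surrounding concentrations. TGI is the concentration that stops growth completely.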"}
{"smiles": "COc1nc(Cl)nc(N[C@H](C)c2c3ccccc3cc3ccccc23)n1", "values": [{"measurement": "TGI", "setting": "LOX IMVI melanoma", "result": 33.2, "unit": "µM"}, {"measurement": "TGI", "setting": "MCF7 breast", "result": 29.2, "unit": "µM"}, {"measurement": "TGI", "setting": "OVCAR-3 ovarian", "result": 23.5, "unit": "µM"}, {"measurement": "TGI", "setting": "NCI/ADR-RES ovarian", "result": 31.3, "unit": "µM"}, {"measurement": "TGI", "setting": "TK-10 renal", "result": 14.8, "unit": "µM"}, {"measurement": "TGI", "setting": "HS 578T breast", "result": 21.9, "unit": "µM"}, {"measurement": "TGI", "setting": "PC-3 prostate", "result": 31.5, "unit": "µM"}, {"measurement": "TGI", "setting": "SF-295 CNS", "result": 31, "unit": "µM"}, {"measurement": "TGI", "setting": "BT-549 breast", "result": 32.5, "unit": "µM"}, {"measurement": "TGI", "setting": "ACHN renal", "result": 31.7, "unit": "µM"}, {"measurement": "TGI", "setting": "DU-145 prostate", "result": 25, "unit": "µM"}, {"measurement": "TGI", "setting": "T-47D breast", "result": 9.08, "unit": "µM"}]}
{"smiles": "COC1/C=C/C(C)C(O)CC(O)/C=C/C(C)C(C(C)C(OC)C(C)CCC(=O)C(C)C(C/C=C/N(C)C=O)OC)OC(=O)/C=C/C=C(\\C)CC(OC)CC2=CC(=O)O[C@@H](C(C)C(OC)C1)[C@H]2O", "note": "(stereo partly specified)", "values": [{"measurement": "TGI", "setting": "M14 melanoma", "result": "< 0.005", "unit": "µM"}, {"measurement": "TGI", "setting": "MCF7 breast", "result": 0.0909, "unit": "µM"}, {"measurement": "TGI", "setting": "OVCAR-3 ovarian", "result": 0.0106, "unit": "µM"}, {"measurement": "TGI", "setting": "TK-10 renal", "result": 0.0551, "unit": "µM"}, {"measurement": "TGI", "setting": "HS 578T breast", "result": 0.0493, "unit": "µM"}, {"measurement": "TGI", "setting": "PC-3 prostate", "result": 0.131, "unit": "µM"}, {"measurement": "TGI", "setting": "SR leukemia", "result": 24.6, "unit": "µM"}, {"measurement": "TGI", "setting": "SF-295 CNS", "result": "< 0.005", "unit": "µM"}, {"measurement": "TGI", "setting": "BT-549 breast", "result": 1.5, "unit": "µM"}, {"measurement": "TGI", "setting": "ACHN renal", "result": 0.13, "unit": "µM"}, {"measurement": "TGI", "setting": "DU-145 prostate", "result": 4.09, "unit": "µM"}, {"measurement": "TGI", "setting": "T-47D breast", "result": 1.28, "unit": "µM"}]}
{"smiles": "N#Cc1ccccc1NC(=O)C(=O)C(C(=O)c1ccccc1F)C1OC(=O)c2ccccc21", "note": "(stereo unspecified)", "values": [{"measurement": "TGI", "setting": "M19-MEL melanoma", "result": "> 100", "unit": "µM"}, {"measurement": "TGI", "setting": "DMS 273 small cell lung", "result": "> 100", "unit": "µM"}, {"measurement": "TGI", "setting": "KM20L2 colon", "result": "> 100", "unit": "µM"}, {"measurement": "TGI", "setting": "LXFL 529 NSCLC", "result": "> 100", "unit": "µM"}, {"measurement": "TGI", "setting": "M14 melanoma", "result": "> 100", "unit": "µM"}, {"measurement": "TGI", "setting": "SNB-78 CNS", "result": 90.2, "unit": "µM"}, {"measurement": "TGI", "setting": "LOX IMVI melanoma", "result": "> 100", "unit": "µM"}, {"measurement": "TGI", "setting": "DMS 114 small cell lung", "result": "> 100", "unit": "µM"}, {"measurement": "TGI", "setting": "TK-10 renal", "result": "> 100", "unit": "µM"}, {"measurement": "TGI", "setting": "SR leukemia", "result": 57, "unit": "µM"}, {"measurement": "TGI", "setting": "SF-295 CNS", "result": "> 100", "unit": "µM"}, {"measurement": "TGI", "setting": "ACHN renal", "result": "> 100", "unit": "µM"}]}
{"smiles": "C[C@H]1S[C@@H](c2ccc(Cl)cc2Cl)N(NC(=O)c2ccncc2)C1=O", "values": [{"measurement": "TGI", "setting": "M14 melanoma", "result": "> 100", "unit": "µM"}, {"measurement": "TGI", "setting": "MCF7 breast", "result": "> 100", "unit": "µM"}, {"measurement": "TGI", "setting": "OVCAR-3 ovarian", "result": "> 100", "unit": "µM"}, {"measurement": "TGI", "setting": "NCI/ADR-RES ovarian", "result": "> 100", "unit": "µM"}, {"measurement": "TGI", "setting": "HS 578T breast", "result": "> 100", "unit": "µM"}, {"measurement": "TGI", "setting": "PC-3 prostate", "result": "> 100", "unit": "µM"}, {"measurement": "TGI", "setting": "SR leukemia", "result": "> 100", "unit": "µM"}, {"measurement": "TGI", "setting": "BT-549 breast", "result": "> 100", "unit": "µM"}, {"measurement": "TGI", "setting": "DU-145 prostate", "result": "> 100", "unit": "µM"}, {"measurement": "TGI", "setting": "T-47D breast", "result": "> 100", "unit": "µM"}]}
{"smiles": "C=CCC(O[Si](C)(C)C(C)(C)C)c1cc(O[Si](C)(C)C(C)(C)C)ccc1OC", "note": "(stereo unspecified)", "values": [{"measurement": "TGI", "setting": "DMS 273 small cell lung", "result": "> 100", "unit": "µM"}, {"measurement": "TGI", "setting": "KM20L2 colon", "result": "> 100", "unit": "µM"}, {"measurement": "TGI", "setting": "SNB-78 CNS", "result": "> 100", "unit": "µM"}, {"measurement": "TGI", "setting": "LOX IMVI melanoma", "result": "> 100", "unit": "µM"}, {"measurement": "TGI", "setting": "DMS 114 small cell lung", "result": "> 100", "unit": "µM"}, {"measurement": "TGI", "setting": "MCF7 breast", "result": "> 100", "unit": "µM"}, {"measurement": "TGI", "setting": "OVCAR-3 ovarian", "result": "> 100", "unit": "µM"}, {"measurement": "TGI", "setting": "NCI/ADR-RES ovarian", "result": "> 100", "unit": "µM"}, {"measurement": "TGI", "setting": "SF-295 CNS", "result": "> 100", "unit": "µM"}]}
{"smiles": "CCOc1ccc2nc(NC(=O)C(=O)C(C(=O)c3ccccc3F)C3OC(=O)c4ccccc43)sc2c1", "note": "(stereo unspecified)", "values": [{"measurement": "TGI", "setting": "M19-MEL melanoma", "result": 27, "unit": "µM"}, {"measurement": "TGI", "setting": "DMS 273 small cell lung", "result": 51.4, "unit": "µM"}, {"measurement": "TGI", "setting": "KM20L2 colon", "result": 71, "unit": "µM"}, {"measurement": "TGI", "setting": "LXFL 529 NSCLC", "result": 77.8, "unit": "µM"}, {"measurement": "TGI", "setting": "M14 melanoma", "result": 32.5, "unit": "µM"}, {"measurement": "TGI", "setting": "SNB-78 CNS", "result": 74.4, "unit": "µM"}, {"measurement": "TGI", "setting": "TK-10 renal", "result": 90.7, "unit": "µM"}, {"measurement": "TGI", "setting": "SR leukemia", "result": 55.6, "unit": "µM"}, {"measurement": "TGI", "setting": "ACHN renal", "result": "> 100", "unit": "µM"}]}
{"smiles": "COc1ccccc1NC(=O)C(=O)C(C(=O)c1ccccc1F)C1OC(=O)c2ccccc21", "note": "(stereo unspecified)", "values": [{"measurement": "TGI", "setting": "M19-MEL melanoma", "result": 61.6, "unit": "µM"}, {"measurement": "TGI", "setting": "DMS 273 small cell lung", "result": "> 100", "unit": "µM"}, {"measurement": "TGI", "setting": "KM20L2 colon", "result": 58.2, "unit": "µM"}, {"measurement": "TGI", "setting": "LXFL 529 NSCLC", "result": "> 100", "unit": "µM"}, {"measurement": "TGI", "setting": "M14 melanoma", "result": "> 100", "unit": "µM"}, {"measurement": "TGI", "setting": "SNB-78 CNS", "result": "> 100", "unit": "µM"}, {"measurement": "TGI", "setting": "LOX IMVI melanoma", "result": 39.2, "unit": "µM"}, {"measurement": "TGI", "setting": "DMS 114 small cell lung", "result": 64.3, "unit": "µM"}, {"measurement": "TGI", "setting": "TK-10 renal", "result": "> 100", "unit": "µM"}, {"measurement": "TGI", "setting": "SR leukemia", "result": 60.7, "unit": "µM"}, {"measurement": "TGI", "setting": "SF-295 CNS", "result": "> 100", "unit": "µM"}, {"measurement": "TGI", "setting": "ACHN renal", "result": "> 100", "unit": "µM"}]}
